Like-named read-outs stand apart in the source and are kept apart here.
How the values were obtained:
[1] = Cohort 2: histological measurement of adipocyte size in inguinal fat pad (H&E); assay type: in vivo, male C57BL/6 mice; details: sc every three days for 23 days
Protocol: (§1) Cohort 2: The second set of animal experiments were conducted according to a protocol approved by the Purdue Animal Care and Use Committee (protocol number: 11129000347). Male C57BL/6 DIO mice were purchased from Jackson Laboratory. After 8-week HF diet feeding, mice were randomly assigned to the same groups as cohort 1: control, avasimibe, semaglutide, and combination groups. Avasimibe (20 mg/kg BW) and semaglutide (0.04 mg/kg BW) were prepared in the method used with regard to Cohort 1, and the drugs were sc injected every three days for 23 days. Mice were kept on a 12/12 h light/dark cycle in a humidity and temperature control facility with ad libitum access to food and water.
During animal sacrifice, adipose tissues were rinsed with saline solution, fixed in 10% neutral formalin buffered solution, and embedded in paraffin. The tissues were then cut into […] sections and stained with hematoxylin and eosin (H&E) to measure cell size (˜100 cells/mouse) by ImageJ software (NIH).

[2] = assay type: in vivo, male C57BL/6 mice; parameters: Plasma Cholesterol / Plasma CE (cholesteryl ester): unit not given here; details: mean±SEM, n=10
Protocol: (§2) Cohort 1: The first set of animal study was conducted at Nonclinical Research Institute, ChemOn Inc., and experimental procedures were approved by Institutional Animal Care and Use Committee (serial number 2021-09-007). Eight-week-old male C57BL/6 mice were purchased (Orient Bio Inc., Republic of Korea). After 2-week acclimation, the mice were fed with high-fat (HF) diet (cat #: D12492, Research Diets Inc.) for 12 weeks to develop DIO. These mice were then randomly assigned to control, avasimibe, semaglutide, and combination groups. Avasimibe solution was prepared for making the final concentration of avasimibe at 10 mg/kg BW, as described in Y. Zhu, S. Q. Kim, Y. Zhang, Q. Liu, K. H. Kim, Pharmacological inhibition of acyl-coenzyme A:cholesterol acyltransferase alleviates obesity and insulin resistance in diet-induced obese mice by regulating food intake, Metabolism 123 (2021) 154861, which is incorporated herein by reference. Semaglutide stock solution prepared in DMSO (1 mg/ml) was diluted with PBS for the final concentration of 0.04 mg/kg BW. The drug solution or the vehicle solution at a volume of 10 μl/g BW was injected to the mice sc daily for the indicated days.
Body composition (e.g., fat mass, lean mass, free water, and total water) changes were assessed right before sacrificing the second cohort of mice using EchoMRI (Echo Medical Systems). Blood samples were obtained after fasting for 3h, frozen and stored until analysis. Aspartate transaminase (AST), alanine aminotransferase (ALT), glucose, triglycerides (TG), high-density lipoprotein (HDL-C) and low-density lipoprotein cholesterol (LDL-C) were also measured (AU680 Chemistry Analyzer, Beckman Coulter). The levels of serum leptin (cat #: ab100718, Abcam) and insulin (cat #: ab277390, Abcam) were determined by enzyme-linked immunosorbent assay kit and cholesterol/CE (cat #: ab65359, Abcam) was determined by an enzymatic assay according to the manufacturers' instructions.

[3] = Cohort 1: daily sc administration in morbidly obese DIO mice, body weight, food intake, organ weight; assay type: in vivo, male C57BL/6 mice; details: for mean body weight change, % of starting body weight: initial 4-week period (day 28), avasimibe 10 mg/kg BW, semaglutide 0.04 mg/kg BW, HF diet
Protocol: as §2
Cohort 1 mice were used to investigate whether combined treatment with semaglutide and a lower dose avasimibe compared to single semaglutide injection in morbidly obese mice (FIG. 1A). On the first day of the experiment, the average body weight of the mice was recorded as 48.84±2.26 grams (FIG. 1B). […] Mice in the vehicle control and avasimibe groups were sacrificed after additional 16 days of treatment (FIG. 1A). Throughout the initial 4-week period, the mean body weight of the vehicle-treated animals increased by 1.2% compared to their starting body weight. In contrast, the mean body weight changes for mice treated with avasimibe, semaglutide, or the combination of both drugs were −6.29%, −21.66%, and −30.47% of their starting body weight, respectively (FIG. 1C). […] Y. Zhu, S. Q. Kim, Y. Zhang, Q. Liu, K. H. Kim, Pharmacological inhibition of acyl-coenzyme A:cholesterol acyltransferase alleviates obesity and insulin resistance in diet-induced obese mice by regulating food intake, Metabolism 123 (2021) 154861, which is incorporated herein by reference. Consequently, we increased the avasimibe dose to 20 mg/kg BW in the subsequent study involving the second cohort of mice. […] However, as the treatment regimen continued, food intake gradually returned to baseline levels, and the effect of semaglutide diminished around day 26. […] To investigate potential toxic effects of the combination treatment on the liver, we measured plasma ALT and AST levels.

[4] = Cohort 2: sc administration every three days for 23 days in moderately obese DIO mice, body weight and food intake; assay type: in vivo, male C57BL/6 mice; details: for mean body weight loss, % of the starting body weight: sc every three days for 23 days, avasimibe 20 mg/kg BW, HF diet
Protocol: as §1, with “water. To validate the impact of the combined treatment of semaglutide and avasimibe in DIO mice and to simulate a weekly semaglutide regimen for humans, we utilized Cohort 2 mice (FIG. 2A). On day 1, the average body weight of the mice was recorded as 37.37±3.58 grams. Throughout the treatment period, the mice in the vehicle group continued to gain weight, reaching an average body weight of 41.58±4.74 grams, representing a […] increase from the starting body weight (FIG. 2B). […] Specifically, the mean body weight losses were 0.82%, 8.56%, and 14.89% of the starting body weight for the mice treated with avasimibe, semaglutide, and the combination of both drugs, respectively (FIG. 2C).” for “water.”

[5] = Cohort 2: oral glucose tolerance test (OGTT); assay type: in vivo, male C57BL/6 mice; details: sc every three days, avasimibe 20 mg/kg BW; D-glucose 2 g/kg BW oral after 6 h fast
Protocol: as §1, with “water. Mice were fasted for 6 hrs (07:00-13:00) prior to oral administration of D-glucose (2 g/kg BW). Tail blood samples were obtained before (at 0) and at 15, 30, 60, 90 and 120 minutes after glucose challenge for the measurement of blood glucose concentration using a CONTOUR® NEXT glucometer (Ascensia Diabetes Care, Parsippany, NJ, USA).” for “water.”

[6] = daily intraperitoneal (ip) 20 mg/kg BW avasimibe for 14 day; cited from earlier work
[7] = Day 29, daily sc semaglutide 0.04 mg/kg BW with or without avasimibe 10 mg/kg BW
[8] = Day 43, daily sc avasimibe 10 mg/kg BW

Compound: semaglutide
- percentage of large adipocytes (40,001-100,000 μm^2) compared to vehicle group [1]: lower percentage
- Plasma CE (cholesteryl ester) [2, 7]: 7.071 ± 0.240
- Plasma Cholesterol [2, 7]: 8.055 ± 0.292
- Plasma Glucose [2, 7]: 121.73 ± 6.26 mg/dL
- Plasma HDL [2, 7]: 37.02 ± 1.14 mg/dL
- Plasma Insulin [2, 7]: 0.41 ± 0.07 mIU/mL
- Plasma LDL [2, 7]: 5.05 ± 0.60 mg/dL
- Plasma Leptin [2, 7]: 2.99 ± 0.65 pg/mL
- Plasma TG (triglyceride) [2, 7]: 21.60 ± 1.38 mg/dL
- day around which the effect on food intake diminished ([3]; daily sc semaglutide 0.04 mg/kg BW): ~26 days
- mean body weight change, % of starting body weight ([3]; daily sc): −21.66%
- food intake compared to vehicle or avasimibe alone ([3]; daily sc, early treatment period): rapid suppression of food intake
- mean body weight loss, % of the starting body weight ([4]; semaglutide 0.04 mg/kg BW): 8.56%
- time for food intake to recover after each administration ([4]; sc every three days, semaglutide 0.04 mg/kg BW): ≤ 48 h
- food intake by day 22, versus vehicle group ([4]; sc every three days, by the seventh administration): surpass that of the vehicle group

Compound: CC(C)c1cc(C(C)C)c(CC(=O)NS(=O)(=O)Oc2c(C(C)C)cccc2C(C)C)c(C(C)C)c1 [Avasimibe, avasimibe]
- percentage of large adipocytes (20,001-100,000 μm^2) compared to vehicle group [1]: lower percentage
- percentage of small adipocytes (5,001-10,000 μm^2) compared to vehicle group [1]: significantly higher percentage
- Plasma Glucose [2, 8]: 139.7 ± 6.32 mg/dL
- Plasma HDL [2, 8]: 35.13 ± 1.14 mg/dL
- Plasma Insulin [2, 8]: 1.43 ± 0.29 mIU/mL
- Plasma LDL [2, 8]: 7.14 ± 0.46 mg/dL
- Plasma Leptin [2, 8]: 6.72 ± 1.40 pg/mL
- Plasma TG (triglyceride) [2, 8]: 33.80 ± 2.09 mg/dL
- mean body weight change, % of starting body weight ([3]; daily sc): −6.29%
- mean body weight loss, % of the starting body weight ([4]; semaglutide 0.04 mg/kg BW): 0.82%
- glucose tolerance in OGTT [5]: did not enhance glucose tolerance
- reduction in body weight [6]: 24%
